In patent US10364256B2 (GlaxoSmithKline Intellectual Property Development Limited, priority 2015, dated 2019):

Assays:
[1] = target: T1, Keap1 Kelch domain (321-609) / TAMRA-labeled 16mer NRF2 peptide (ETGE motif) (Homo sapiens, UniProt Q14145); test: NRF2-Keap1 FP Assay (Keap1 Kelch fluorescence polarization); format: binding; details: 20 nM Keap1 (321-609), 8 nM Tamra labeled peptide
T1 construct: the Kelch domain (321-609) of Keap1 is used
Summary of the method: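 Compound dilutions (3-fold) were incubated 1 hr at room temperature with 20 nM Keap1 Kelch (321-609) and 8 nM TAMRA-labeled ETGE 16mer peptide. Buffer was 50 mM Tris pH 8.0, 100 mM NaCl, 5 mM MgCl2, 1 mM DTT, 2 mM CHAPS, 0.005% BSA. Fluorescence polarization (mP) was normalized to controls and fitted with a four-parameter equation to give pIC50.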

[2] = system: NQO1 specific enzyme activity in BEAS-2B cells (marker for NRF2 activation); test: BEAS-2B NQO1 MTT Assay; format: cell-based; details: Homo sapiens, compound incubated 48 hours, read-out: EC50 (NQO1 specific enzyme activity induction)
Summary of the method: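 NQO1 specific activity induction is derived from the rate of MTT reduction (ΔOD/min, 570 nm, 30 min kinetic read) in crude lysates of BEAS-2B cells exposed to compound for 48 h. A 3-parameter fit gives EC50, reported as pEC50; part of each lysate goes to Cell Titer Glo.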

[3] = target: T2, full length Keap1 protein / full length NRF2 protein (Homo sapiens, UniProt Q14145); test: NRF2-Keap1 TR-FRET Assay; format: binding; details: 25 nM Keap1-FlagHis and 50 nM biotin-NRF2 added
T2 construct: full length NRF2 protein and full length Keap1 protein (Keap1 exists a dimer) are used; His
T2 sequence (Q14145 whole entry): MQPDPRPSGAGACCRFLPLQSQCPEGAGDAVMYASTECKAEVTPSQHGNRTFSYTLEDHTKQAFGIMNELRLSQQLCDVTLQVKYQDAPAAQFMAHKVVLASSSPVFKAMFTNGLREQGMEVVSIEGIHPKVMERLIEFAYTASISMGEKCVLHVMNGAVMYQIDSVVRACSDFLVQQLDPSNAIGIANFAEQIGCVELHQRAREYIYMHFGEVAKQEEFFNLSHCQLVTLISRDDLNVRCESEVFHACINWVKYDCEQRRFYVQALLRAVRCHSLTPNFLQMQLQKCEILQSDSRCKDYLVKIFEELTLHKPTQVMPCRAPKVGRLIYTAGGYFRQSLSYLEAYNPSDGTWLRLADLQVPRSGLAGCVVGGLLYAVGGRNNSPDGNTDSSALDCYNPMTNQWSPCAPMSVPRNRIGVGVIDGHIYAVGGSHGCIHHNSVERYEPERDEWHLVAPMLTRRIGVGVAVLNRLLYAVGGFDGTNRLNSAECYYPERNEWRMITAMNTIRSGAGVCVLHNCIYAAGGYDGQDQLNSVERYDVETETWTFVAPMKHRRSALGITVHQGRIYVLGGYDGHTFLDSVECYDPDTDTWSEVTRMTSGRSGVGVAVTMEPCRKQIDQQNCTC
Text: In the NRF2-Keap1 TR-FRET (time-resolved fluorescence resonance energy transfer) assay, full length NRF2 protein and full length Keap1 protein (Keap1 exists a dimer) are used. The assay detects the ability of compound to displace the binding of FlagHis-tagged Keap1 with biotinylated, Avi-tagged NRF2 protein. Biotin-NRF2 binds to streptavidin-europium (a component of the detection mix) and Keap1-FlagHis is recognized by anti-Flag APC (allophycocyanin) antibody (also a component of the detection mix). If binding occurs between the two proteins, there will be an energy transfer from the Eu+3 (donor) at 615 nm to the APC (acceptor) at 665 nm. A potential Keap1 inhibitor will cause a reduction in the TR-FRET signal by interfering with the binding of Keap1 to NRF2.
One hundred nanoliters of 100× compound dose response curves (serial 3-fold dilutions) in DMSO are stamped using an Echo liquid handling system (Labcyte) into 384-well, low volume, black assay plates (Greiner, #784076), with DMSO in columns 6 and 18. The top concentration of compound is located in columns 1 and 13. All reagents are diluted in assay buffer (50 mM Tris, pH 8.0, 5 mM MgCl2, 100 mM NaCl, 0.005% BSA, 1 mM DTT, and 2 mM CHAPS). The BSA, DTT, and CHAPS are added to the assay buffer on the day of assay. Using a Multidrop Combi (Thermo Electron Corporation) equipped with a metal tip dispenser, 5 ul of 25 nM Keap1-FlagHis protein is added to all wells of the compound plate, with the exception of the wells in column 18. Wells in column 18 receive 5 ul of assay buffer instead. Plates are centrifuged at 500 rpm for 1 minute, covered with a plate lid, and incubated at 37° C. for 2.25 hours. Plates are then removed from the incubator and allowed to cool to RT for 15 minutes. Five microliters of 50 nM biotin-NRF2 protein is then added to all wells of the plates and the plates are spun at 500 rpm for 1 minute, followed by incubating at 4° C. for 1.25 hours. The plates are then allowed to warm to RT for 15 minutes, followed by the addition of 10 ul of detection mix (1 nM Streptavidin Eu+ W1024 and 5 ug/ml mouse anti-DYKDDDDK IgG conjugated to SureLight APC antibody; both from Columbia Biosciences) to all wells. Plates are spun at 500 rpm for 1 minute, incubated for 1 hour at RT, and read on an Envision plate reader using a 320 nm excitation filter and 615 nm and 665 nm emission filters. Compound response (% inhibition) and potency (pIC50) are calculated based on the ratio of the two emissions (665 nm/615 nm) and then the transformed data is normalized against controls in the assay (control 1=1% DMSO in the presence of NRF2 and Keap1 protein and control 2=1% DMSO in the absence of protein). Data analysis is handled using the software package Abase XE (Surrey, United Kingdom). The % inhibition values are calculated from the ratio (transformed) data by the equation: 100−(100*(compound response−average control 2)/(average control 1−average control2)). For calculation of pIC50s, Abase XE uses a four parameter equation. pIC50 is the negative log of the IC50.

T1 sequence (Q14145 321-609): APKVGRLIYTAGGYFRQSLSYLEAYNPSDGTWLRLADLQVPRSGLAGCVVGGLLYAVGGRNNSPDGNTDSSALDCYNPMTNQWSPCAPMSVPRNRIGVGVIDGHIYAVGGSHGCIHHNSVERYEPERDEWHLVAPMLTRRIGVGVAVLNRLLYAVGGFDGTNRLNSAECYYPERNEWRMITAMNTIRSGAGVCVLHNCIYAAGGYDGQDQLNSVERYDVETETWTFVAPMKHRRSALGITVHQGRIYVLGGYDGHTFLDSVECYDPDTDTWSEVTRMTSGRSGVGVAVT

| IC50 [1] | IC50 [3] | SMILES | EC50 [2] |
| --- | --- | --- | --- |
| 10 to 100 nM | 100 to 1000 nM | Cn1cc(C2CC2c2c(C(=O)O)cnn2-c2cccc(-c3cccc(C(O)C4CCCCC4)c3)c2)nn1 (stereo not drawn) [Example 220, 1-(3′-(Cyclohexyl(hydroxy)methyl)-[1,1′-biphenyl]-3-yl)-5-(2-(1-methyl-1H-1,2,3-triazol-4-yl)cyclopropyl)-1H-pyrazole-4-carboxylic acid] | 1000 to 10000 nM |
| 10 to 100 nM | 100 to 1000 nM | O=C(O)c1cnn(-c2cccc(-c3cccc(C(=O)N4CCOC5(CCCC5)C4)c3F)c2)c1C1CC1 [Example 44, 5-cyclopropyl-1-[3-(2-fluoro-3-{6-oxa-9-azaspiro[4.5]decane-9-carbonyl}phenyl)phenyl]-1H-pyrazole-4-carboxylic Acid] | 1000 to 10000 nM |
| 100 to 1000 nM | 1000 to 10000 nM | CC1CCC(C)N1C(=O)c1cccc(-c2cccc(-n3ncc(C(=O)O)c3C3CC3)c2)c1F (stereo not drawn) [Example 24, 5-Cyclopropyl-1-{3-[3-(2,5-dimethylpyrrolidine-1-carbonyl)-2-fluorophenyl]phenyl}-1H-pyrazole-4-carboxylic Acid] | 1000 to 10000 nM |
| 10 to 100 nM | 1000 to 10000 nM | CCCN(CC1CC1)C(=O)c1cccc(-c2cccc(-n3ncc(C(=O)O)c3C3CC3)c2)c1F [Example 9, 5-Cyclopropyl-1-(3-{3-[(cyclopropylmethyl)(propyl)carbamoyl]-2-fluorophenyl}phenyl)-1H-pyrazole-4-carboxylic Acid] | 1000 to 10000 nM |
| 100 to 1000 nM | 1000 to 10000 nM | CCCN(CC1CC1)C(=O)c1cccc(-c2cccc(-n3ncc(C(=O)O)c3C3CC3)c2)c1C [Example 16, 5-Cyclopropyl-1-(3-{3-[(cyclopropylmethyl)(propyl)carbamoyl]-2-methylphenyl}phenyl)-1H-pyrazole-4-carboxylic Acid] | 1000 to 10000 nM |
| 100 to 1000 nM | 10000 to 100000 nM | CN(C)C(=O)c1cccc(-c2cccc(-n3ncc(C(=O)O)c3C3CCCC3)c2)c1F [Example 1, 5-Cyclopentyl-1-{3-[3-(dimethylcarbamoyl)-2-fluorophenyl]phenyl}-1H-pyrazole-4-carboxylic Acid] | 1000 to 10000 nM |
| > 10000 nM | 10000 to 100000 nM | Cc1nc(-c2cccc(-c3cccc(-n4ncc(C(=O)O)c4C4CC4)c3)c2)no1 [Example 211, 5-Cyclopropyl-1-(3′-(5-methyl-1,2,4-oxadiazol-3-yl)-[1,1′-biphenyl]-3-yl)-1H-pyrazole-4-carboxylic acid] | 1000 to 10000 nM |
| 100 to 1000 nM | 100 to 1000 nM | Cn1cc([C@@H]2C[C@H]2c2c(C(=O)O)cnn2-c2cccc(-c3cccc(CN4CCOCC4)c3)c2)nn1 (racemic) [Example 248, 5-(trans-2-(1-Methyl-1H-1,2,3-triazol-4-yl)cyclopropyl)-1-(3′-(morpholinomethyl)-[1,1′-biphenyl]-3-yl)-1H-pyrazole-4-carboxylic Acid] | 1000 to 10000 nM |
| 10 to 100 nM | 1000 to 10000 nM | COCC1CCCCN1C(=O)c1cccc(-c2cccc(-n3ncc(C(=O)O)c3C3CC3)c2)c1F (stereo not drawn) [Example 22, 5-Cyclopropyl-1-(3-{2-fluoro-3-[2-(methoxymethyl)piperidine-1-carbonyl]phenyl}phenyl)-1H-pyrazole-4-carboxylic Acid] | 1000 to 10000 nM |
| 100 to 1000 nM | 1000 to 10000 nM | O=C(O)c1cnn(-c2cccc(-c3cccc(C(=O)N4CCCC(C(F)(F)F)C4)c3F)c2)c1C1CC1 (stereo not drawn) [Example 18, 5-Cyclopropyl-1-(3-{2-fluoro-3-[3-(trifluoromethyl)piperidine-1-carbonyl]phenyl}phenyl)-1H-pyrazole-4-carboxylic Acid] | 1000 to 10000 nM |
| 100 to 1000 nM | 1000 to 10000 nM | CN(C(=O)c1cccc(-c2cccc(-n3ncc(C(=O)O)c3C3CC3)c2)c1F)C1CCCC1 [Example 3, 1-(3-{3-[Cyclopentyl(methyl)carbamoyl]-2-fluorophenyl}phenyl)-5-cyclopropyl-1H-pyrazole-4-carboxylic Acid] | 1000 to 10000 nM |
| 100 to 1000 nM | 1000 to 10000 nM | CN(CC1CC1)C(=O)c1cccc(-c2cccc(-n3ncc(C(=O)O)c3C3CC3)c2)c1F [Example 48, 5-cyclopropyl-1-(3-{3-[(cyclopropylmethyl)(methyl)carbamoyl]-2-fluorophenyl}phenyl)-1H-pyrazole-4-carboxylic Acid] | 1000 to 10000 nM |
| 100 to 1000 nM | 10000 to 100000 nM | CN(C)C(=O)c1cccc(-c2cccc(-n3ncc(C(=O)O)c3C3CC(c4ccccc4)C3)c2)c1 (stereo not drawn) [Example 49, 1-{3-[3-(dimethylcarbamoyl)phenyl]phenyl}-5-(3-phenylcyclobutyl)-1H-pyrazole-4-carboxylic Acid] | 1000 to 10000 nM |
| 10 to 100 nM | 100 to 1000 nM | Cn1cc(C2CC2c2c(C(=O)O)cnn2-c2cccc(-c3cccc(OCC4CCOCC4)c3)c2)nn1 (stereo not drawn) [Example 174, 5-(2-(1-Methyl-1H-1,2,3-triazol-4-yl)cyclopropyl)-1-(3′-((tetrahydro-2H-pyran-4-yl)methoxy)-[1,1′-biphenyl]-3-yl)-1H-pyrazole-4-carboxylic acid] | 1000 to 10000 nM |
| 100 to 1000 nM | 1000 to 10000 nM | CCCN(CC1CC1)C(=O)c1cccc(-c2cccc(-n3ncc(C(=O)O)c3C3CC3)c2)c1Cl [Example 15, 1-(3-{2-Chloro-3-[(cyclopropylmethyl)(propyl)carbamoyl]phenyl}phenyl)-5-cyclopropyl-1H-pyrazole-4-carboxylic Acid] | 1000 to 10000 nM |
| 100 to 1000 nM | 1000 to 10000 nM | CCCC(COc1cccc(-c2cccc(-n3ncc(C(=O)O)c3C3CC3c3cn(C)nn3)c2)c1)C1CCCCC1 (stereo not drawn) [Example 172, 1-(3′-((2-Cyclohexylpentyl)oxy)-[1,1′-biphenyl]-3-yl)-5-(2-(1-methyl-1H-1,2,3-triazol-4-yl)cyclopropyl)-1H-pyrazole-4-carboxylic acid] | 100 to 1000 nM |
| 10 to 100 nM | 100 to 1000 nM | CCCC1COCCN1C(=O)c1cccc(-c2cccc(-n3ncc(C(=O)O)c3C3CC3)c2)c1F (stereo not drawn) [Example 27, 5-Cyclopropyl-1-{3-[2-fluoro-3-(3-propylmorpholine-4-carbonyl)phenyl]phenyl}-1H-pyrazole-4-carboxylic Acid] | 1000 to 10000 nM |
| 10 to 100 nM | 100 to 1000 nM | O=C(O)c1cnn(-c2cccc(-c3cccc(C(=O)N4CCCC5(CCCOC5)C4)c3F)c2)c1C1CC1 (stereo not drawn) [Example 43, 5-Cyclopropyl-1-[3-(2-fluoro-3-{2-oxa-8-azaspiro[5.5]undecane-8-carbonyl}phenyl)phenyl]-1H-pyrazole-4-carboxylic Acid] | 1000 to 10000 nM |
| 100 to 1000 nM | 1000 to 10000 nM | CN(C(=O)c1cccc(-c2cccc(-n3ncc(C(=O)O)c3C3CC3)c2)c1F)C1CCCCC1 [Example 5, 1-(3-{3-[Cyclohexyl(methyl)carbamoyl]-2-fluorophenyl}phenyl)-5-cyclopropyl-1H-pyrazole-4-carboxylic Acid] | 1000 to 10000 nM |
